ChEMBL document CHEMBL3044736, “Synthesis, characterization, solvatochromic properties, and antimicrobial evaluation of 5-acetyl-2-thioxo-dihydro-pyrimidine-4,6-dione-based chalcones” (2013)
In brackets after ≈: the same amount, converted by molar mass.

Columns and labels:
Type in all cases: functional
Penicillium [1] = assay: Antimicrobial activity against Penicillium wild strain assessed as diameter of growth inhibition zone at 250 ug/ml after 48-96 hr by agar cup diffusion method; details: read-out: DIZ
Penicillium [2] = assay: Antimicrobial activity against Penicillium wild strain assessed as diameter of growth inhibition zone at 100 ug/ml after 48-96 hr by agar cup diffusion method; details: read-out: DIZ
Trichophyton rubrum [3] = assay: Antimicrobial activity against Trichophyton rubrum MTCC 296 assessed as diameter of growth inhibition zone at 100 ug/ml after 48-96 hr by agar cup diffusion method; details: read-out: DIZ
Aspergillus clavatus [4] = assay: Antimicrobial activity against Aspergillus clavatus MTCC 1323 assessed as diameter of growth inhibition zone at 100 ug/ml after 48-96 hr by agar cup diffusion method; details: read-out: DIZ
Candida albicans [5] = assay: Antimicrobial activity against Candida albicans MTCC 227 assessed as diameter of growth inhibition zone at 100 ug/ml after 48-96 hr by agar cup diffusion method; details: read-out: DIZ
Penicillium [6] = assay: Antimicrobial activity against Penicillium wild strain assessed as diameter of growth inhibition zone at 50 ug/ml after 48-96 hr by agar cup diffusion method; details: read-out: DIZ
Trichophyton rubrum [7] = assay: Antimicrobial activity against Trichophyton rubrum MTCC 296 assessed as diameter of growth inhibition zone at 50 ug/ml after 48-96 hr by agar cup diffusion method; details: read-out: DIZ
Aspergillus clavatus [8] = assay: Antimicrobial activity against Aspergillus clavatus MTCC 1323 assessed as diameter of growth inhibition zone at 50 ug/ml after 48-96 hr by agar cup diffusion method; details: read-out: DIZ
Candida albicans [9] = assay: Antimicrobial activity against Candida albicans MTCC 227 assessed as diameter of growth inhibition zone at 50 ug/ml after 48-96 hr by agar cup diffusion method; details: read-out: DIZ
Penicillium [10] = assay: Antimicrobial activity against Penicillium wild strain assessed as diameter of growth inhibition zone at 25 ug/ml after 48-96 hr by agar cup diffusion method; details: read-out: DIZ
Trichophyton rubrum [11] = assay: Antimicrobial activity against Trichophyton rubrum MTCC 296 assessed as diameter of growth inhibition zone at 25 ug/ml after 48-96 hr by agar cup diffusion method; details: read-out: DIZ
Aspergillus clavatus [12] = assay: Antimicrobial activity against Aspergillus clavatus MTCC 1323 assessed as diameter of growth inhibition zone at 25 ug/ml after 48-96 hr by agar cup diffusion method; details: read-out: DIZ
Candida albicans [13] = assay: Antimicrobial activity against Candida albicans MTCC 227 assessed as diameter of growth inhibition zone at 25 ug/ml after 48-96 hr by agar cup diffusion method; details: read-out: DIZ
Penicillium [14] = assay: Antimicrobial activity against Penicillium wild strain by agar cup diffusion method
Aspergillus clavatus [15] = assay: Antimicrobial activity against Aspergillus clavatus MTCC 1323 by agar cup diffusion method
Pseudomonas aeruginosa [16] = assay: Antimicrobial activity against Pseudomonas aeruginosa MTCC 1688 assessed as diameter of growth inhibition zone at 25 ug/ml after 18-24 hr by agar cup diffusion method; details: read-out: DIZ
Escherichia coli [17] = assay: Antimicrobial activity against Escherichia coli MTCC 443 assessed as diameter of growth inhibition zone at 25 ug/ml after 18-24 hr by agar cup diffusion method; details: read-out: DIZ
Staphylococcus aureus [18] = assay: Antimicrobial activity against Staphylococcus aureus MTCC 96 assessed as diameter of growth inhibition zone at 25 ug/ml after 18-24 hr by agar cup diffusion method; details: read-out: DIZ
Streptococcus pyogenes [19] = assay: Antimicrobial activity against Streptococcus pyogenes MTCC 442 assessed as diameter of growth inhibition zone at 25 ug/ml after 18-24 hr by agar cup diffusion method; details: read-out: DIZ
Klebsiella pneumoniae [20] = assay: Antimicrobial activity against Klebsiella pneumoniae MTCC 109 by agar cup diffusion method
Escherichia coli [21] = assay: Antimicrobial activity against Escherichia coli MTCC 443 by agar cup diffusion method
Pseudomonas aeruginosa [22] = assay: Antimicrobial activity against Pseudomonas aeruginosa MTCC 1688 by agar cup diffusion method
Staphylococcus aureus [23] = assay: Antimicrobial activity against Staphylococcus aureus MTCC 96 by agar cup diffusion method
Streptococcus pyogenes [24] = assay: Antimicrobial activity against Streptococcus pyogenes MTCC 442 by agar cup diffusion method
Trichophyton rubrum [25] = assay: Antimicrobial activity against Trichophyton rubrum MTCC 296 by agar cup diffusion method
Candida albicans [26] = assay: Antimicrobial activity against Candida albicans MTCC 227 by agar cup diffusion method
Klebsiella pneumoniae [27] = assay: Antimicrobial activity against Klebsiella pneumoniae MTCC 109 assessed as diameter of growth inhibition zone at 250 ug/ml after 18-24 hr by agar cup diffusion method; details: read-out: DIZ
Pseudomonas aeruginosa [28] = assay: Antimicrobial activity against Pseudomonas aeruginosa MTCC 1688 assessed as diameter of growth inhibition zone at 250 ug/ml after 18-24 hr by agar cup diffusion method; details: read-out: DIZ
Escherichia coli [29] = assay: Antimicrobial activity against Escherichia coli MTCC 443 assessed as diameter of growth inhibition zone at 250 ug/ml after 18-24 hr by agar cup diffusion method; details: read-out: DIZ
Staphylococcus aureus [30] = assay: Antimicrobial activity against Staphylococcus aureus MTCC 96 assessed as diameter of growth inhibition zone at 250 ug/ml after 18-24 hr by agar cup diffusion method; details: read-out: DIZ
Streptococcus pyogenes [31] = assay: Antimicrobial activity against Streptococcus pyogenes MTCC 442 assessed as diameter of growth inhibition zone at 250 ug/ml after 18-24 hr by agar cup diffusion method; details: read-out: DIZ
Klebsiella pneumoniae [32] = assay: Antimicrobial activity against Klebsiella pneumoniae MTCC 109 assessed as diameter of growth inhibition zone at 100 ug/ml after 18-24 hr by agar cup diffusion method; details: read-out: DIZ
Pseudomonas aeruginosa [33] = assay: Antimicrobial activity against Pseudomonas aeruginosa MTCC 1688 assessed as diameter of growth inhibition zone at 100 ug/ml after 18-24 hr by agar cup diffusion method; details: read-out: DIZ
Escherichia coli [34] = assay: Antimicrobial activity against Escherichia coli MTCC 443 assessed as diameter of growth inhibition zone at 100 ug/ml after 18-24 hr by agar cup diffusion method; details: read-out: DIZ
Staphylococcus aureus [35] = assay: Antimicrobial activity against Staphylococcus aureus MTCC 96 assessed as diameter of growth inhibition zone at 100 ug/ml after 18-24 hr by agar cup diffusion method; details: read-out: DIZ
Streptococcus pyogenes [36] = assay: Antimicrobial activity against Streptococcus pyogenes MTCC 442 assessed as diameter of growth inhibition zone at 100 ug/ml after 18-24 hr by agar cup diffusion method; details: read-out: DIZ
Klebsiella pneumoniae [37] = assay: Antimicrobial activity against Klebsiella pneumoniae MTCC 109 assessed as diameter of growth inhibition zone at 50 ug/ml after 18-24 hr by agar cup diffusion method; details: read-out: DIZ
Pseudomonas aeruginosa [38] = assay: Antimicrobial activity against Pseudomonas aeruginosa MTCC 1688 assessed as diameter of growth inhibition zone at 50 ug/ml after 18-24 hr by agar cup diffusion method; details: read-out: DIZ
Escherichia coli [39] = assay: Antimicrobial activity against Escherichia coli MTCC 443 assessed as diameter of growth inhibition zone at 50 ug/ml after 18-24 hr by agar cup diffusion method; details: read-out: DIZ
Staphylococcus aureus [40] = assay: Antimicrobial activity against Staphylococcus aureus MTCC 96 assessed as diameter of growth inhibition zone at 50 ug/ml after 18-24 hr by agar cup diffusion method; details: read-out: DIZ
Streptococcus pyogenes [41] = assay: Antimicrobial activity against Streptococcus pyogenes MTCC 442 assessed as diameter of growth inhibition zone at 50 ug/ml after 18-24 hr by agar cup diffusion method; details: read-out: DIZ
Klebsiella pneumoniae [42] = assay: Antimicrobial activity against Klebsiella pneumoniae MTCC 109 assessed as diameter of growth inhibition zone at 25 ug/ml after 18-24 hr by agar cup diffusion method; details: read-out: DIZ
Trichophyton rubrum [43] = assay: Antimicrobial activity against Trichophyton rubrum MTCC 296 assessed as diameter of growth inhibition zone at 250 ug/ml after 48-96 hr by agar cup diffusion method; details: read-out: DIZ
Aspergillus clavatus [44] = assay: Antimicrobial activity against Aspergillus clavatus MTCC 1323 assessed as diameter of growth inhibition zone at 250 ug/ml after 48-96 hr by agar cup diffusion method; details: read-out: DIZ
Candida albicans [45] = assay: Antimicrobial activity against Candida albicans MTCC 227 assessed as diameter of growth inhibition zone at 250 ug/ml after 48-96 hr by agar cup diffusion method; details: read-out: DIZ

O=C(/C=C/c1cccc([N+](=O)[O-])c1)C1C(=O)NC(=S)NC1=O
zone of inhibition at 250 µg/mL (Penicillium [1]): 22 mm | zone of inhibition at 100 µg/mL (Penicillium [2]): 21 mm | zone of inhibition at 100 µg/mL (Trichophyton rubrum [3]): 22 mm | zone of inhibition at 100 µg/mL (Aspergillus clavatus [4]): 22 mm | zone of inhibition at 100 µg/mL (Candida albicans [5]): 23 mm | zone of inhibition at 50 µg/mL (Penicillium [6]): 20 mm | zone of inhibition at 50 µg/mL (Trichophyton rubrum [7]): 21 mm | zone of inhibition at 50 µg/mL (Aspergillus clavatus [8]): 22 mm | zone of inhibition at 50 µg/mL (Candida albicans [9]): 22 mm | zone of inhibition at 25 µg/mL (Penicillium [10]): 18 mm | zone of inhibition at 25 µg/mL (Trichophyton rubrum [11]): 18 mm | zone of inhibition at 25 µg/mL (Aspergillus clavatus [12]): 20 mm | zone of inhibition at 25 µg/mL (Candida albicans [13]): 21 mm | MFC (Penicillium [14]): 1000 µg/mL (≈ 3130 µM) | MIC (Penicillium [14]): 1000 µg/mL (≈ 3130 µM) | MFC (Aspergillus clavatus [15]): 1000 µg/mL (≈ 3130 µM) | MIC (Aspergillus clavatus [15]): 1000 µg/mL (≈ 3130 µM) | zone of inhibition at 25 µg/mL (Pseudomonas aeruginosa [16]): 14 mm | zone of inhibition at 25 µg/mL (Escherichia coli [17]): 15 mm | zone of inhibition at 25 µg/mL (Staphylococcus aureus [18]): 14 mm | zone of inhibition at 25 µg/mL (Streptococcus pyogenes [19]): 15 mm | MBC (Klebsiella pneumoniae [20]): 100 µg/mL (≈ 313 µM) | MIC (Klebsiella pneumoniae [20]): 62.5 µg/mL (≈ 196 µM) | MBC (Escherichia coli [21]): 100 µg/mL (≈ 313 µM) | MIC (Escherichia coli [21]): 100 µg/mL (≈ 313 µM) | MBC (Pseudomonas aeruginosa [22]): 200 µg/mL (≈ 626 µM) | MIC (Pseudomonas aeruginosa [22]): 125 µg/mL (≈ 391 µM) | MBC (Staphylococcus aureus [23]): 250 µg/mL (≈ 783 µM) | MIC (Staphylococcus aureus [23]): 200 µg/mL (≈ 626 µM) | MBC (Streptococcus pyogenes [24]): 250 µg/mL (≈ 783 µM) | MIC (Streptococcus pyogenes [24]): 200 µg/mL (≈ 626 µM) | MFC (Trichophyton rubrum [25]): 1000 µg/mL (≈ 3130 µM) | MIC (Trichophyton rubrum [25]): 1000 µg/mL (≈ 3130 µM) | MFC (Candida albicans [26]): 1000 µg/mL (≈ 3130 µM) | MIC (Candida albicans [26]): 1000 µg/mL (≈ 3130 µM) | zone of inhibition at 250 µg/mL (Klebsiella pneumoniae [27]): 18 mm | zone of inhibition at 250 µg/mL (Pseudomonas aeruginosa [28]): 19 mm | zone of inhibition at 250 µg/mL (Escherichia coli [29]): 18 mm | zone of inhibition at 250 µg/mL (Staphylococcus aureus [30]): 19 mm | zone of inhibition at 250 µg/mL (Streptococcus pyogenes [31]): 18 mm | zone of inhibition at 100 µg/mL (Klebsiella pneumoniae [32]): 17 mm | zone of inhibition at 100 µg/mL (Pseudomonas aeruginosa [33]): 17 mm | zone of inhibition at 100 µg/mL (Escherichia coli [34]): 18 mm | zone of inhibition at 100 µg/mL (Staphylococcus aureus [35]): 17 mm | zone of inhibition at 100 µg/mL (Streptococcus pyogenes [36]): 18 mm | zone of inhibition at 50 µg/mL (Klebsiella pneumoniae [37]): 14 mm | zone of inhibition at 50 µg/mL (Pseudomonas aeruginosa [38]): 16 mm | zone of inhibition at 50 µg/mL (Escherichia coli [39]): 17 mm | zone of inhibition at 50 µg/mL (Staphylococcus aureus [40]): 16 mm | zone of inhibition at 50 µg/mL (Streptococcus pyogenes [41]): 17 mm | zone of inhibition at 25 µg/mL (Klebsiella pneumoniae [42]): 10 mm | zone of inhibition at 250 µg/mL (Trichophyton rubrum [43]): 27 mm | zone of inhibition at 250 µg/mL (Aspergillus clavatus [44]): 24 mm | zone of inhibition at 250 µg/mL (Candida albicans [45]): 24 mm
